In one series the test system is Mus musculus. The series is described as follows: Ex vivo binding affinity at CB1 receptor in mouse at 10 mg/kg, iv. In kind it is functional.
Series [1] addresses T1, Cannabinoid receptor 1 (Homo sapiens, UniProt P21554). Put plainly: Inverse agonist activity at human CB1 receptor.
Series [2] deals with T2, Cannabinoid receptor 1 (Rattus norvegicus, UniProt P20272). The series is described as follows: Inverse agonist activity at rat CB1 receptor.
The target in series [3] is T1, Cannabinoid receptor 1. The series is described as follows: Binding affinity at CB1 receptor (unknown origin).
Series [4] deals with Nucleic Acid. Put plainly: Ratio of drug uptake in plasma to brain of C57BL/6J mouse. It counts as ADME. The conditions noted are these: in vivo.
Series [5] concerns Nucleic Acid. Put plainly: Ratio of drug uptake in plasma to brain of po dosed mouse. It counts as ADME, organism-based. The following applies: in vivo.
Series [6] addresses T1, Cannabinoid receptor 1. The series is described as follows: Antagonist activity at human CB1 receptor.
In series [7] the test system is Brain. Put plainly: Drug uptake in rat brain. It counts as ADME, tissue-based. The following applies: in vivo, read-out: Drug uptake.
Series [8] concerns Brain. The series is described as follows: Drug uptake in mouse brain. It counts as ADME, tissue-based. The conditions noted are these: in vivo, read-out: Drug uptake.
The target in series [9] is T2, Cannabinoid receptor 1. Put plainly: Antagonist activity at rat CB1 receptor.
Series [10] in a line: Protein binding in rat plasma at 10 mg/kg. The conditions noted are these: read-out: PPB. The arrangement: dose 10 mg/kg. It counts as ADME, organism-based.
Series [11] has as its target T1, Cannabinoid receptor 1. Put plainly: Binding affinity to human CB1 receptor.
The nature of series [12]: Cmax in rat at 10 mg/kg. The arrangement: dose 10 mg/kg. The following applies: in vivo. In kind it is ADME, organism-based.
Series [13] is described as follows: Lipophilicity, log D of the compound. The following applies: octanol/water. It counts as physicochemical.
In series [14] the test system is Rattus norvegicus. The series is described as follows: Receptor occupancy at CB1 receptor in rat frontal cortex at 10 mg/kg, po. It counts as functional.
Series [15] has as its system Rattus norvegicus. Put plainly: Receptor occupancy at CB1 receptor in rat frontal cortex at 3 to 10 mg/kg, po. In kind it is functional. The conditions noted are these: dose mg/kg 3-10.
The species named for series [16] is Rattus norvegicus. Put plainly: Receptor occupancy at CB1 receptor in diet-induced obese rat assessed as weight loss. It counts as functional.

This is an account of results in ChEMBL document CHEMBL3352803, “Peripherally restricted CB1 receptor blockers” (Bioorg Med Chem Lett, 2013).

Molecules are shown by their SMILES. pIC50, pKi: −log10 of the molar value.

T1 sequence (P21554 whole entry): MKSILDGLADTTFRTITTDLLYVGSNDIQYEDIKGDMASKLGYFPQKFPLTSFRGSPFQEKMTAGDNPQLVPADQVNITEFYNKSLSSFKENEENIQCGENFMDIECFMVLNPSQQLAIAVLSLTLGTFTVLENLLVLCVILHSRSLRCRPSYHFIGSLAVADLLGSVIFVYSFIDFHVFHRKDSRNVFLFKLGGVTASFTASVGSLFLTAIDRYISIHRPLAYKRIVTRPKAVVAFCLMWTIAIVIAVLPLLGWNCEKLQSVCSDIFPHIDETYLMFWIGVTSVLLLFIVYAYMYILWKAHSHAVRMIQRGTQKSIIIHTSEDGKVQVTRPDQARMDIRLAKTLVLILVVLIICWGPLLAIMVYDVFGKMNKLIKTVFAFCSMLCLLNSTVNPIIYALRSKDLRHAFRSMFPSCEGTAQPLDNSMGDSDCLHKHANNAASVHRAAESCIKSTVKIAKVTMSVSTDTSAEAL
T2 sequence (P20272 whole entry): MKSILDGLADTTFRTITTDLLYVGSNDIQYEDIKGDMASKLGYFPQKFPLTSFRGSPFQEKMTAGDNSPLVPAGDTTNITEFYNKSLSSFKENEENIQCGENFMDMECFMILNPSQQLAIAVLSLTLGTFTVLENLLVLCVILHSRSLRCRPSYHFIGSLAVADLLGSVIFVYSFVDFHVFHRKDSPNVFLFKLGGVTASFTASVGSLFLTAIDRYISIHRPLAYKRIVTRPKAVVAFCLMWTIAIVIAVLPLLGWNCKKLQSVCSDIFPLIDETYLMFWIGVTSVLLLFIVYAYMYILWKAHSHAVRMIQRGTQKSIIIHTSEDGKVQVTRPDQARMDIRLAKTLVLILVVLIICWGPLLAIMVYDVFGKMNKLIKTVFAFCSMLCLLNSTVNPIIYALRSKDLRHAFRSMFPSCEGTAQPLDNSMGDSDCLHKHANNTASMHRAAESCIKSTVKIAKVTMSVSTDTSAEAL

In the series with Mus musculus, `CS(=O)(=O)NCCCn1c(C(=O)N2CCC(C(N)=O)(N3CCC(F)(F)CC3)CC2)cc(-c2ccc(Cl)cc2Cl)c1-c1ccc(Cl)cc1` displayed an Activity of 28%.
A word on the pIC50: it is the IC50 on a negative log10 scale, so that one unit is a factor of ten. Lower therefore signals a large IC50. For the compound `CCCCCCc1nc(-c2ccc(Cl)cc2)n(-c2ccc(Cl)cc2Cl)n1`, the pIC50 at Cannabinoid receptor 1 [1] is 6.20; at Cannabinoid receptor 1 [2], 6.16.
As a reminder, the pKi is −log10 of the Ki, conventionally taken in molar units. A high value points to a low Ki. The compound `CCc1c(C(=O)NN2CCCCC2)nn(-c2ccc(Cl)cc2Cl)c1-c1ccc(C#Cc2ccc(C(F)(F)F)cc2)s1` gave a negative-log IC50 (pIC50) at Cannabinoid receptor 1 [1] of 8.07. Also, at Cannabinoid receptor 1 [3], the pKi is 8.52. For the same compound, the Ratio stood at 33 in the series on Nucleic Acid [4] and 1.2 in the series with Nucleic Acid [5].
Consider `Cc1c(C(=O)NN2CCS(=O)(=O)CC2)nn(-c2ccc(Cl)cc2Cl)c1-c1ccc(C#CCCC#N)cc1`, for which the negative logarithm of the Ki (pKi) on Cannabinoid receptor 1 [6] is 9.00. Also, the concentration with Brain [7] and with Brain [8] was 50 nM each time. In the series with Nucleic Acid [5], the Ratio was determined as 33.
In turn, `Cc1c(/C=C/C(=O)NCc2cccc(Cl)c2)nn(-c2ccc(Cl)cc2Cl)c1-c1ccc(Cl)cc1` showed a pIC50 at Cannabinoid receptor 1 [9] of 6.80.
For orientation: Cmax means the highest concentration seen after dosing. Broadly, the logD is lipophilicity at a set pH, counting ionised and neutral species. Regarding `CC1(C)C(=O)N(c2ccc(F)c(C(F)(F)F)c2)C(=O)C1Cc1ccc(F)cc1NC(=O)Nc1ccc(S(N)(=O)=O)cc1` (stereo not given), the fraction unbound in series [10] is less than 0.01. For the same compound, at Cannabinoid receptor 1 [11], the pIC50 was 8.00 and the pKi was 8.05. In series [12], this compound returned a Cmax of 430 nM. The logD in [13] stood at 3.66.
`CN/C(=N\S(=O)(=O)c1ccc(Cl)cc1)N1C[C@H](c2ccccc2)C(c2ccc(Cl)cc2)=N1` [IBIPINABANT]: the Occ with Rattus norvegicus [14] was found to be 11%.
Take `Cc1c(C(=O)NN2CCCCC2)nn(-c2ccc(Cl)cc2Cl)c1-c1ccc(Cl)cc1` [RIMONABANT]: the Occ in the series on Rattus norvegicus [15] was greater than 65%.
As to `C[C@H](NC(=O)C(C)(C)Oc1ccc(C(F)(F)F)cn1)[C@@H](Cc1ccc(Cl)cc1)c1cccc(C#N)c1` [TARANABANT], the Occ in the series filed under Rattus norvegicus [16] is on record as 30%.
